Like-named read-outs stand apart in the source and are kept apart here.
Key:
[1] = tested on: cutaneous vasomotor reaction of blush area; test: Cutaneous vasomotor response (and tolerability) after a single oral dose in 8 male volunteers; format: in vivo, human; parameters: key to Cutaneous vasomotor response, Score (0-6), Mean: graded 0 = not observed to 6 = most severe reaction
Method: (§1) Eight male nonsmoking subjects aged 24-32 participated. They were normal by history, physical exam and routine laboratory analysis of blood and urine.
(§2) This was a single-blind, three-phase crossover study beginning after a 10-hour fast at 8 a.m., designated time 0 (control), when the first venipuncture occurred. In phase I, three capsules of lactose were given orally, followed by venipunctures 2 and 4 h later. In phase II, 1 week later, after a control blood specimen drawn at 8 a.m., PZG (900 mg) was given orally and blood specimens taken 2 and 4 h thereafter. In phase III, 3 weeks later, after a control blood specimen drawn at 8 a.m., PZA (300 mg) was given orally and blood specimens taken 2 and 4 h later.
(§3) Comparisons of mean serum or plasma concentrations ±SD during placebo, PZG and PZA phases are presented in Table 1 for glucose, insulin, C-peptide, free fatty acids and norepinephrine. Comparisons of mean serum or plasma concentrations ±SD during these three phases are presented in Table 2 for triglycerides, VLDL, LDL, HDL, total cholesterol, fibrinogen and serum PZG and PZA concentrations. Note the close agreement of serum PZG and PZA concentrations at 2 h and also at 4 h after their administration. Table 3 compares mean serum or plasma concentrations ±SD of renin, angiotensin I, adlosterone, potassium, urea and uric acid during the three phases of the study. […] In an earlier pilot experiment to determine serum PZA concentrations following different PZA doses, a first subject ([…]) after a single oral dose of 300 mg PZA developed unexpectedly a typical cutaneous vasomotor reaction of their blush area which included flushed, warm skin of face, neck and shoulders with a mild rash for about 90 min. […] They described the reaction variously as warm redness or flushed head and neck, rash and itching (Table 4). These reactions, which were graded from 6 (most severe) to 0 (not observed), lasted from 30 min in 3 subjects to 4 h in 1 subject. […] No significant correlation occurred between score of reaction (effect+duration) and PZA peak blood concentration among the subjects (r=0.281) (Table 4).
(§4) ^1 Score = warm + redness (flush) + rash + itching + duration. Duration
(§5) as 0.5 h, 1, 2, 4 h (reaction and duration as noted).

[2] = in vivo; cited from earlier work
[3] = tested on: cutaneous vasomotor reaction of blush area; test: Exploratory (pilot) study: serum concentrations and cutaneous vasomotor reaction after different oral PZA doses in two subjects; format: in vivo, human
Method: as §3, §4, §5

[4] = as above; format: in vivo, human; settings: human, serum, po, exploratory study; for concentration at 1 h: read-out: Serum PZG, 1 h; for concentration at 2 h: read-out: Serum PZG, 2 h
Method: as §3, §4, §5

[5] = Single-blind, three-phase crossover study of single oral doses: blood analyses of metabolic, hormonal and electrolyte parameters in 8 normal male subjects; format: in vivo, human; settings: for Free fatty acids, mean / Angiotensin I, mean / Renin, mean / C-peptide, mean / Potassium, mean / Uric acid, mean / Aldosterone, mean / Insulin, mean / Urea, mean / VLDL Cholesterol, mean / Norepinephrine, mean / HDL Cholesterol, mean / Glucose, mean / Triglycerides, mean / LDL Cholesterol, mean / Total cholesterol, mean / Fibrinogen, mean: 8 normal subjects; for Free fatty acids, mean: 0 h: PZG 0.47, PZA 0.51; for Angiotensin I, mean: 0 h: PZG 0.84, PZA 0.66; for Renin, mean: 0 h: PZG 1.0, PZA 1.5; for C-peptide, mean: 0 h: PZG 1.1, PZA 1.2; for Potassium, mean: 0 h: PZG 4.2, PZA 4.0; for Uric acid, mean: 0 h: PZG 6.0, PZA 5.6; for Aldosterone, mean: 0 h: PZG 8.6, PZA 13.6; for Insulin, mean: 0 h: PZG 8.8, PZA 5.4; for Urea, mean: 0 h: PZG 17, PZA 17; for VLDL Cholesterol, mean: 0 h: PZG 20, PZA 17; for Norepinephrine, mean: 0 h: PZG 37, PZA 75; for HDL Cholesterol, mean: 0 h: PZG 41, PZA 46; for Glucose, mean: 0 h: PZG 87, PZA 84; for Triglycerides, mean: 0 h: PZG 101, PZA 86; for LDL Cholesterol, mean: 0 h: PZG 107, PZA 104; for Total cholesterol, mean: 0 h: PZG 168, PZA 167; for Fibrinogen, mean: 0 h: PZG 266, PZA 293
Method: A three-phase study, where single oral doses of placebo, followed in one week by 900 mg of pyrazinoylguanidine (PZG), followed in three weeks by 300 mg of pyrazinoic acid (PZA), involving normal male subjects, was carried out to compare and contrast metabolic effects of single doses of PZG and PZA. A purpose of the study was to determine whether the metalbolic effects observed after 3 and also 21 days of PZG administration in patients with renal disease or with diabetes also occurred after a single oral dose. […]
as §1, §2
(§6) Each phase consisted of taking three capsules, each containing 300 mg. In phase I, all three capsules were of lactose; in phase II, all three were PZG; and in phase III, two capsules were lactose and one PZA. All capsules appeared indistinguishable and were given to each subject who swallowed them with water in the presence of an investigator.
(§7) Once obtained, blood specimens were immediately spun. Refrigerated serum or plasma was analyzed within 24 h for glucose, insulin, electrolytes, blood urea nitrogen, creatinine, liver function tests, triglycerides, total cholesterol, high-density lipoprotein (HDL) cholesterol, low-density lipoprotein (LDL) cholesterol, very-low-density lipoprotein (VLDL) cholesterol, free fatty acids, and fibrinogen.
Repeated measures of analysis of variance were used to compare each subject's placebo, PZG and PZA phase. Two-tailed Student t-tests were performed between groups. All results are reported as means ±SD. Statistical significance was considered when p<0.05. The results are illustrated in Tables 1-4.

[6] = Serum concentration of PZG or PZA after single oral dose in the crossover study; format: in vivo; settings: human, 300 mg
Method: as §1, §2, §6, §7

[7] = 2 h after single oral dose (PZG 900 mg, PZA 300 mg)
[8] = 4 h after single oral dose (PZG 900 mg, PZA 300 mg)

SMILES: O=C(O)c1cnccn1 [PZA, pyrazinoic acid]
- onset of cutaneous reaction relative to peak serum concentration ([1]; 300 mg PZA): the onset preceded peak serum PZA concentrations
- subjects that responded with a cutaneous vasomotor reaction ([1]; 300 mg PZA): 7 of 8
- seriousness of cutaneous vasomotor reactions ([1]; 300 mg PZA, 8 subjects): None of the cutaneous vasomotor reactions was serious enough to interfere with participation in the study
- subjects without cutaneous vasomotor reaction ([1]; 300 mg PZA, 8 subjects): One subject among the 8 had no reaction
- duration of cutaneous vasomotor reaction (longest) ([1]; 300 mg PZA, in 1 subject): 4 h
- duration of cutaneous vasomotor reaction (shortest) ([1]; 300 mg PZA, in 3 subjects): 30 min
- effect on blush area ([1]; PZA): transiently stimulate
- Cutaneous vasomotor response, Score (0-6), Mean ([1]; single 300-mg dose of PZA, mean of 8 male volunteers): 3.25
- effect on serum triglycerides [2]: lower serum triglycerides
- effect on uric acid blood concentrations [2]: increase uric acid blood concentrations
- Cutaneous vasomotor response, Score (0-6), exploratory study ([3]; subject two, single oral dose 600 mg): 0
- cutaneous vasomotor reaction ([3]; subject two, single oral dose of 600 mg PZA): no cutaneous vasomotor reaction
- Cutaneous vasomotor response, Score (0-6), exploratory study ([3]; subject, single oral dose 300 mg): 6
- duration of cutaneous vasomotor reaction ([3]; subject, single oral dose of 300 mg PZA, face, neck and shoulders with mild rash): about 90 min
- half-life ([4]; subject two, 600 mg): 5 h
- concentration at 1 h ([4]; subject two, 600 mg): 10200 ng/mL
- concentration at 2 h ([4]; subject two, 600 mg): 12000 ng/mL
- half-life ([4]; subject, 300 mg): 3 h
- concentration at 1 h ([4]; subject, 300 mg): 6200 ng/mL
- concentration at 2 h ([4]; subject, 300 mg): 4800 ng/mL
- effect on mean values for serum glucose, insulin, C-peptide, triglycerides and free fatty acids ([5]; 0, 2 and 4 hours after administration): decreased
- Free fatty acids, mean [5, 7]: 0.10 meq/l
- Angiotensin I, mean [5, 7]: 0.75 ng/ml per h
- Renin, mean [5, 7]: 1.7 ng/ml per h
- C-peptide, mean [5, 7]: 1.0 ng/mL
- Potassium, mean [5, 7]: 4.6 meg/l
- Uric acid, mean [5, 7]: 6.3 mg/dL
- Aldosterone, mean [5, 7]: 12.3 ng/dL
- Insulin, mean [5, 7]: 3.7 μlU/ml
- Urea, mean [5, 7]: 17 mg/dL
- VLDL Cholesterol, mean [5, 7]: 15 mg/dL
- Norepinephrine, mean [5, 7]: 61 pg/mL
- HDL Cholesterol, mean [5, 7]: 41 mg/dL
- Glucose, mean [5, 7]: 85 mg/dL
- Triglycerides, mean [5, 7]: 77 mg/dL
- LDL Cholesterol, mean [5, 7]: 126 mg/dL
- Total cholesterol, mean [5, 7]: 179 mg/dL
- Fibrinogen, mean [5, 7]: 278 mg/dL
- Free fatty acids, mean [5, 8]: 0.09 meq/l
- Angiotensin I, mean [5, 8]: 0.73 ng/ml per h
- Renin, mean [5, 8]: 2.1 ng/ml per h
- C-peptide, mean [5, 8]: 0.7 ng/mL
- Potassium, mean [5, 8]: 4.3 meg/l
- Uric acid, mean [5, 8]: 6.2 mg/dL
- Aldosterone, mean [5, 8]: 12.5 ng/dL
- Insulin, mean [5, 8]: 3.7 μlU/ml
- Urea, mean [5, 8]: 16 mg/dL
- VLDL Cholesterol, mean [5, 8]: 14 mg/dL
- Norepinephrine, mean [5, 8]: 67 pg/mL
- HDL Cholesterol, mean [5, 8]: 45 mg/dL
- Glucose, mean [5, 8]: 80 mg/dL
- Triglycerides, mean [5, 8]: 69 mg/dL
- LDL Cholesterol, mean [5, 8]: 109 mg/dL
- Total cholesterol, mean [5, 8]: 168 mg/dL
- Fibrinogen, mean [5, 8]: 278 mg/dL
- effect on plasma concentrations of nonesterified fatty acids ([5]; PZA (Table 1)): reduce
- effect on insulin, C-peptide, free fatty acids and triglyceride serum concentrations ([5]; at equivalent plasma concentrations of PZG and PZA): reduced
- effect on LDL, HDL and total cholesterol ([5]; single oral dose, within 4 h): not altered systematically
- effect on potassium blood concentrations ([5]; single oral dose, within 4 h): not changed
- effect on uric acid plasma concentration ([5]; single oral dose, within 4 h): increased
- effect on very-low-density lipoprotein (VLDL) ([5]; single oral dose, within 4 h): decreased
- effect on plasma norepinephrine ([5]; single oral dose, not statistically significant): did not elevate
- concentration at 2 h ([6]; 2 h after single oral dose (PZG 900 mg, PZA 300 mg), 8 normal subjects, read-out: Serum concentration of PZG or PZA, mean): 5000 ng/mL
- concentration at 4 h ([6]; 4 h after single oral dose (PZG 900 mg, PZA 300 mg), 8 normal subjects): 3000 ng/mL
- concentration at 2 h ([6]; single 300-mg dose of PZA, individual subjects one, read-out: PZA 2-hour serum conc): 5600 ng/mL
- concentration at 2 h ([6]; single 300-mg dose of PZA, mean of 8 male volunteers, read-out: PZA 2-hour serum conc, Mean): 4960 ng/mL
